Assay results taken from US20160304556A1, “[…] ACTIVE COMPOUNDS AND THEIR METHODS OF USE” (AGIOS PHARMACEUTICALS, INC, priority 2012, published 2016).

Experiments:
HT1080 cells = assay: Cellular assay, inhibition of 2-HG production (LC-MS) in HT1080 cells; format: cell-based; conditions: Homo sapiens, HT-1080, 48 hours, LC-MS of media
Description: Cells (HT1080 or U87MG) are grown in T125 flasks in DMEM containing 10% FBS, 1× penicillin/streptomycin and 500 ug/mL G418 (present in U87MG cells only). They are harvested by trypsin and seeded into 96 well white bottom plates at a density of 5000 cell/well in 100 μl/well in DMEM with 10% FBS. No cells are placed in columns 1 and 12. Cells are incubated overnight at 37° C. in 5% CO2. The next day test compounds are made up at 2× the final concentration and 100 μl are added to each cell well. The final concentration of DMSO is 0.2% and the DMSO control wells are plated in row G. The plates are then placed in the incubator for 48 hours. At 48 hours, 100 μl of media is removed from each well and analyzed by LC-MS for 2-HG concentrations. The cell plate is placed back in the incubator for another 24 hours. At 72 hours post compound addition, 10 mL/plate of Promega Cell Titer Glo reagent is thawed and mixed. The cell plate is removed from the incubator and allowed to equilibrate to room temperature. Then 100 μl of Promega Cell Titer Glo reagent is added to each well of media. The cell plate is then placed on an orbital shaker for 10 minutes and then allowed to sit at room temperature for 20 minutes. The plate is then read for luminescence with an integration time of 500 ms.
The IC50 for inhibition of 2-HG production (concentration of test compound to reduce 2HG production by 50% compared to control) in these two cell lines for various compounds of formula I is set forth in Table 2 above.

IDH1 R132C = IDH1 R132C (Homo sapiens, UniProt O75874, R132C); assay: In vitro NADPH depletion assay for IDH1m R132C inhibitors; format: biochemical; conditions: enzyme, diaphorase/resazurin readout, read-out: IDH R132C IC50
Description: (§1) A test compound is prepared as 10 mM stock in DMSO and diluted to 50× final concentration in DMSO, for a 50 μl reaction mixture. IDH enzyme activity converting alpha-ketoglutarate to 2-hydroxyglutaric acid is measured using a NADPH depletion assay. In the assay the remaining cofactor is measured at the end of the reaction with the addition of a catalytic excess of diaphorase and resazurin, to generate a fluorescent signal in proportion to the amount of NADPH remaining. IDH1-R132 homodimer enzyme is diluted to […] in 40 μl of Assay Buffer(150 mM NaCl, 20 mM Tris-Cl pH 7.5, 10 mM MgCl2, 0.05% BSA, 2 mM b-mercaptoethanol); 1 μl of test compound dilution in DMSO is added and the mixture is incubated for 60 minutes at room temperature. The reaction is started with the addition of 10 μl of Substrate Mix ([…], 5 mM alpha-ketoglutarate, in Assay Buffer) and the mixture is incubated for 90 minutes at room temperature. The reaction is terminated with the addition of 25 μl of Detection Buffer (36 μg/ml diaphorase, […], in 1× Assay Buffer), and is incubated for 1 minute before reading on a SpectraMax platereader at Ex544/Em590.
Compounds are assayed for their activity against IDH1 R132C following the same assay as above with the following modifications: Assay Buffer is (50 mM potassium phosphate, pH 6.5; 40 mM sodium carbonate, 5 mM MgCl2, 10% glycerol, 2 mM b-mercaptoethanol, and 0.03% BSA). The concentration of NADPH and alpha-ketoglutarate in the Substrate Buffer is 20 μM and 1 mM, respectively.
(§2) Representative compounds of formula I set forth in Table 1 were tested in this assay and the results are set forth below in Table 3.

IDH1 R132H = IDH1 R132H (Homo sapiens, UniProt O75874, R132H); assay: In vitro NADPH depletion assay for IDH1m R132H inhibitors; format: biochemical; conditions: enzyme, diaphorase/resazurin readout, read-out: IDH R132H IC50
Description: as §1, §2

IDH1 R132H, sequence (O75874 whole entry R132H): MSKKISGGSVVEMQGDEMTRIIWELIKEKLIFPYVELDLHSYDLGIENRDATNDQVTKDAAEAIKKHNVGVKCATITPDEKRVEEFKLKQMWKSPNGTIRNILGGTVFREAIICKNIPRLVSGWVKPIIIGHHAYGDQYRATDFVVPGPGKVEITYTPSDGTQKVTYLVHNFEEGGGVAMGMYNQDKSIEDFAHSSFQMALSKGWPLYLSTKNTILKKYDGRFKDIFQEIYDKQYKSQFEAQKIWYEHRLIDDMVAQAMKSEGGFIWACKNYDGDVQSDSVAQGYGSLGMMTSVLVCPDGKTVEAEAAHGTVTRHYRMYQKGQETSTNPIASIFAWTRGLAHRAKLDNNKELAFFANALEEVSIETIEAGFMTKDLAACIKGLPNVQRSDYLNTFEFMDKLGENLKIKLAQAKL
IDH1 R132C, sequence (O75874 whole entry R132C): as the sequence (O75874 whole entry R132H) above, with H132C counted along it

IC50 (HT1080 cells) [nM]	IC50 (IDH1 R132C) [nM]	IC50 (IDH1 R132H) [nM]	Compound
100 to 500	≤ 100	≤ 100	COC(=O)NCC(=O)N(c1cccc(F)c1)[C@H](C(=O)N[C@H]1CCCCC1(F)F)c1ccccc1Cl [Compound 82]
1000 to 2000	100 to 500	100 to 500	CC(C)(C)OC(=O)NCC(=O)N(c1cccc(F)c1)C(C(=O)NC1CCC(F)(F)CC1)c1ccccc1Cl (stereo not drawn) [Compound 93]
100 to 500	≤ 100	≤ 100	C[C@H]1CC[C@@H](C(=O)N(c2cccc(F)c2)[C@H](C(=O)NC2CCC(F)(F)CC2)c2ccccc2Cl)N1c1ncccn1 [Compound 111, (2S,5S)—N—((S)-1-(2-chlorophenyl)-2-(4,4-difluorocyclohexylamino)-2-oxoethyl)-N-(3-fluorophenyl)-5-methyl-1-(pyrimidin-2-yl)pyrrolidine-2-carboxamide]
500 to 1000	100 to 500	100 to 500	COC(=O)N1[C@H](C(=O)N(c2cccc(F)c2)[C@H](C(=O)NC2CC(F)(F)C2)c2ccccc2Cl)CCC1(C)C (single isomer, unassigned) [Compound 115]
500 to 1000	100 to 500	100 to 500	COC(=O)NCC(=O)N(c1cccc(F)c1)[C@H](C(=O)N[C@@H]1CCCCC1(F)F)c1ccccc1Cl [Compound 83]
500 to 1000	100 to 500	≤ 100	COC(=O)N[C@@H](CO)C(=O)N(c1cccc(F)c1)[C@@H](C(=O)NC1CCCCC1)c1ccccc1Cl [Compound 85]
100 to 500	≤ 100	≤ 100	Cc1nc(Cl)c(Cl)n1CC(=O)N(c1cccc(F)c1)C(C(=O)NC1CC(F)(F)C1)c1ccccc1Cl (stereo not drawn) [Compound 87]
≤ 100	≤ 100	≤ 100	COCCO[C@@H]1C[C@@H](C(=O)N(c2cccc(F)c2)[C@H](C(=O)NC2CC(F)(F)C2)c2ccccc2Cl)N(C(=O)OC)C1 [Compound 79, (2S,4R)-methyl 2-(((S)-1-(2-chlorophenyl)-2-((3,3-difluoro-cyclobutyl)amino)-2-oxoethyl)(3-fluorophenyl)carbamoyl)-4-(2-methoxyethoxy)pyrrolidine-1-carboxylate]
100 to 500	100 to 500	100 to 500	COC(=O)N1CCC[C@H]1C(=O)N(c1cccc(F)c1)[C@H](C(=O)NC1CC(F)(F)C1)c1c(Cl)cccc1Cl [Compound 66]
≤ 100	≤ 100	≤ 100	O=C(NC1CC(F)(F)C1)[C@H](c1ccccc1Cl)N(C(=O)[C@H](CO)Nc1ncccn1)c1cccc(F)c1 [Compound 109]
100 to 500	≤ 100	100 to 500	O=C(NC1CC(F)(F)C1)[C@@H](c1ccccc1Cl)N(C(=O)[C@@H]1CCN1c1ccccn1)c1cccc(F)c1 (stereo in doubt) [Compound 105]
100 to 500	≤ 100	≤ 100	C[C@H]1CC[C@@H](C(=O)N(c2cccc(F)c2)[C@H](C(=O)NC2CC(F)(F)C2)c2ccccc2Cl)N1c1ncccn1 [Compound 113, (2S,5S)—N—((S)-1-(2-chlorophenyl)-2-(3,3-difluorocyclobutylamino)-2-oxoethyl)-N-(3-fluorophenyl)-5-methyl-1-(pyrimidin-2-yl)pyrrolidine-2-carboxamide]
500 to 1000	100 to 500	≤ 100	COC(=O)N(C)CC(=O)N(c1cccc(F)c1)C(C(=O)NC1CC(F)(F)C1)c1ccccc1Cl (stereo not drawn) [Compound 96]
100 to 500	≤ 100	≤ 100	O=C(NC1CCC(F)(F)CC1)C(c1ccccc1Cl)N(C(=O)CNc1ncccc1F)c1cccc(F)c1 (stereo not drawn) [Compound 48]
500 to 1000	100 to 500	100 to 500	COC(=O)NCC(=O)N(c1cccc(F)c1)[C@H](C(=O)N[C@H]1CCC(F)(F)C1)c1ccccc1Cl [Compound 97]
100 to 500	≤ 100	≤ 100	COC(=O)N1C[C@H](OCCO)C[C@H]1C(=O)N(c1cccc(F)c1)[C@H](C(=O)NC1CC(F)(F)C1)c1ccccc1Cl [Compound 90]
100 to 500	100 to 500	≤ 100	COC(=O)N1CC[C@H](O)[C@H]1C(=O)N(c1cccc(F)c1)[C@H](C(=O)NC1CC(F)(F)C1)c1ccccc1Cl [Compound 91]
100 to 500	≤ 100	≤ 100	COC(=O)N1C[C@@H](F)C[C@H]1C(=O)N(c1cccc(F)c1)[C@H](C(=O)NC1CC(F)(F)C1)c1ccccc1Cl [Compound 70]
100 to 500	≤ 100	≤ 100	O=C(NC1CC(F)(F)C1)C(c1ccccc1Cl)N(C(=O)Cc1cccnc1)c1cccc(F)c1 (stereo not drawn) [Compound 86]
500 to 1000	100 to 500	100 to 500	CCOC(=O)NCC(=O)N(c1cccc(F)c1)C(C(=O)NC1CC(F)(F)C1)c1ccccc1Cl (stereo not drawn) [Compound 75]
100 to 500	≤ 100	≤ 100	O=C(NC1CC(F)(F)C1)C(c1ccccc1Cl)N(C(=O)Cn1cnc(Cl)c1Cl)c1cccc(F)c1 (stereo not drawn) [Compound 35]
≤ 100	≤ 100	≤ 100	O=C1C[C@@H](C(=O)N(c2cccc(F)c2)[C@H](C(=O)NC2CC(F)(F)C2)c2ccccc2Cl)N(c2ncccn2)C1 [Compound 107]
100 to 500	≤ 100	≤ 100	O=C(NC1CCCCC1)C(c1ccc(F)cc1F)N(C(=O)Cn1cnc(Cl)c1Cl)c1cccc(F)c1 (stereo not drawn) [Compound 29]
1000 to 2000	100 to 500	100 to 500	COC(=O)NCC(=O)N(c1cccc(F)c1)[C@H](C(=O)N[C@@H]1CCC(F)(F)C1)c1ccccc1Cl [Compound 98]
100 to 500	≤ 100	100 to 500	C[C@H]1CC[C@@H](C(=O)N(c2cccc(F)c2)[C@@H](C(=O)NC2CC(F)(F)C2)c2ccccc2Cl)N1c1ncccn1 [Compound 112, (2S,5S)—N—((R)-1-(2-chlorophenyl)-2-(3,3-difluorocyclobutylamino)-2-oxoethyl)-N-(3-fluorophenyl)-5-methyl-1-(pyrimidin-2-yl)pyrrolidine-2-carboxamide]
≤ 100	≤ 100	≤ 100	O=C(NC1CC(F)(F)C1)[C@H](c1ccccc1Cl)N(C(=O)[C@@H]1CCCN1c1ncccn1)c1cccc(F)c1 [Compound 69, (2S)—N—((S)-(3,3-difluorocyclobutylcarbamoyl)(2-chlorophenyl)methyl)-N-(3-fluorophenyl)-1-(pyrimidin-2-yl)pyrrolidine-2-carboxamide]
100 to 500	100 to 500	100 to 500	COC(=O)NCC(=O)N(c1cccc(F)c1)C(C(=O)NC1CCC(F)CC1)c1ccccc1Cl (stereo not drawn) [Compound 81]
100 to 500	≤ 100	100 to 500	O=C(NC1CC(F)(F)C1)[C@H](c1ccccc1Cl)N(C(=O)[C@@H]1CCN1c1ncccn1)c1cccc(F)c1 (stereo in doubt) [Compound 102]
100 to 500	≤ 100	≤ 100	COC(=O)N[C@@H](CO)C(=O)N(c1cccc(F)c1)[C@H](C(=O)NC1CCCCC1)c1ccccc1Cl [Compound 84]
500 to 1000	100 to 500	100 to 500	COC(=O)NCC(=O)N(c1cccc(F)c1)C(C(=O)NC1CC(F)(F)C1)c1ccccc1Cl (stereo not drawn) [Compound 73, methyl 2-((1-(2-chlorophenyl)-2-(3,3-difluorocyclobutylamino)-2-oxoethyl)(3-fluorophenyl)amino)-2-oxoethylcarbamate]
